Measurements taken from patent US20100204295A1, “TREATMENT OF ALLERGIC DISEASE WITH IMMUNOMODULATOR COMPOUNDS” (SCICLONE PHARMACEUTICALS, INC., priority 2007, published 2010).

Experiments:
[1] = test system: RBCs and protein in the BAL; assay: Lung injury / microvascular permeability: RBCs and total protein in BAL, guinea pig model; format: in vivo, Dunkin-Hartley guinea pigs
Description: Animals were sensitized on day 0 ip with 50 mg/kg OVA. On Days 17, 18, 19, and 20, animals received an ip injection between 8 and 10 am with PBS, SCV-07 at 1 ug/kg, or SCV-07 at 10 ug/kg (Peptide treatment). Between 8 and 10 a.m. on Day 21, animals were administered peptide 2 hours before OVA or saline (NSS) aerosol challenge. 30 min before OVA or NSS aerosol challenge each animal was injected ip with an antihistamine (6.1 mg/kg pyrilamine maleate) to prevent death due to the anaphylactic response that accompanies aerosol OVA challenge. Animals were exposed to aerosol in pairs with either 1% OVA solution or NSS for 5 min in a plexiglass chamber (22×22×29 cm) using a DeVilbiss Model 35B Ultrasonic Nebulizer. Animals were observed during the total 5 min aerosolization and comments recorded. Within 22-24 hours after challenge, animals were euthanized, bled by cardiac puncture, lavaged and lung lobes removed for measurement of cellular infiltration. At the time of OVA or NSS challenge and euthanasia, animal weights ranged from approximately 350-550 g, with the average weight approximately 420 g. This experimental protocol is similar to that used in previously published studies (Regal and Fraser, 1996; Regal et al., 2000). […] Total white blood cells in BAL were counted by standard methods in a hemacytometer using Turk's solution. […] Four hundred cells were counted and identified as eosinophils, neutrophils, or mononuclear cells. […] EPO activity from the homogenized lung after lavage was expressed as total OD/min from the left caudal lobe. MPO activity from the homogenized lung after lavage was expressed as total units of enzyme activity from the right caudal lobe. […] OD412 of the BAL supernatant was also determined to estimate the number of RBCS that were lysed during the lavage procedure and prior to re-suspension of the cells for counting. […] Lung injury and/or changes in microvascular permeability were assessed by determining the RBCs in the BAL (FIG. 7A-B) as well as the overall protein content of the BAL fluid (FIG. 7C). […]

[2] = test system: goblet cells in the epithelium of the bronchi; assay: Percentage of goblet cells in the epithelium of the bronchi, ovalbumin asthma model; format: in vivo, mice of the Balb/C line
Excerpt: Female, non-pathogenic mice of the Balb/C line (“Pushchtino” laboratory animal breeders) were kept under conditions of an SPF-vivarium at a constant temperature, 12-hour day/night cycle, and received sterile feed and water ad libitum. In two series of experiments, mice from 6-8 weeks and 18-20 weeks of age were used at the beginning of the experiment, respectively. The animals were immunized twice at 5-day intervals with an ovalbumin solution (Sigma) in an adjuvant based on ammonium sulfate at a dosage of 8 μg per mouse. SCV-07 was administered intra-abdominally in a volume of 200 μL at a dosage of 0.1 or 1.0 μg/kg in PBS once a day from 6 through 11 days after the first immunization. The control group received physiological saline on the same days. Each group comprised 6 to 10 animals. On the 12th, 16th and 20th days after the first immunization, the animals were then placed in a hermetic box, in which an aerosol of 1% ovalbumin solution (OvA) in PBS was generated with an ultrasonic nebulizer LD-207U (Little Doctor) for 1 minute with continuous mixing of air. The duration of exposure of the animals to the aerosol was 15 minutes. […] The number of goblet and epithelial cells on the sections of the bronchi were calculated in no less than five visual fields on sections from the lungs from each animal and expressed as the percentage of the total number of cells.

Compound: N[C@H](CCC(=O)N[C@@H](Cc1c[nH]c2ccccc12)C(=O)O)C(=O)O [SCV-07, γ-D-glutamyl-L-tryptophan]
- OD412 of the BAL supernatant ([1]; change from NSS to OVA): significantly reduced
- Number of RBCs in the BAL (OD412 of lysed cell pellet), change from NSS to OVA ([1]; either 1 or 10 ug/kg): significantly attenuated
- Total protein in the BAL fluid ([1]; guinea pig, in vivo): not affected
- Reduction in the percentage of goblet cells in the epithelium of the bronchi vs control ([2]; 0.1 μg/kg, significant vs control): more than two-fold reduction
- % goblet cells of total number of cells (median, minimum-maximum) ([2]; animals 6 to 8 weeks, 1 μg/kg): 36.5 (3-92) %
